# Assay results as given in patent US9096615B2, “Bridged bicyclic amino thiazine dioxide compounds as inhibitors of beta-secretase and methods of use thereof” (AMGEN INC., priority 2013, dated 2015).
# Columns and labels:
# [1] = target: T1, Cathepsin D (Cat D) (Homo sapiens, UniProt P07339); experiment: In vitro enzymatic Cathepsin D (Cat D) FRET assay; format: biochemical; conditions: average IC50; first procedure; read-out: CatD IC50
# T1 construct: made in house; host or cells: CHO cells
# Outline: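 Fluorescence (500 nm excitation, 580 nm emission) was measured after Tris quench of a 1 h cleavage of 20 nM quenched peptide substrate. Before that, 9 nM CHO-expressed human Cat D sat with compound for 1 h at pH 3.5 (0.05 M citrate, 5 mM CHAPS, 10% DMSO final).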
# [2] = system: Aβ40 in conditioned medium of cells stably expressing Amyloid Precursor Protein (APP); experiment: In vitro BACE cell-based assay (HEK cell assay, Aβ40 sandwich ELISA); conditions: Homo sapiens, HEK293; average IC50; read-out: BACE1 cell assay IC50
# Outline: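 IC50 was derived from percent-of-control Aβ40 against concentration, with Aβ40 quantified by time-resolved fluorescence ELISA (pAb40/6E10-biotin, 4 °C incubations). Supernatants were sampled after 24 h of compound exposure (10 points, starting 100 or 10 μM, 0.1% DMSO) of cells stably expressing APP.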
# T1 sequence (P07339 65-412, species assumed): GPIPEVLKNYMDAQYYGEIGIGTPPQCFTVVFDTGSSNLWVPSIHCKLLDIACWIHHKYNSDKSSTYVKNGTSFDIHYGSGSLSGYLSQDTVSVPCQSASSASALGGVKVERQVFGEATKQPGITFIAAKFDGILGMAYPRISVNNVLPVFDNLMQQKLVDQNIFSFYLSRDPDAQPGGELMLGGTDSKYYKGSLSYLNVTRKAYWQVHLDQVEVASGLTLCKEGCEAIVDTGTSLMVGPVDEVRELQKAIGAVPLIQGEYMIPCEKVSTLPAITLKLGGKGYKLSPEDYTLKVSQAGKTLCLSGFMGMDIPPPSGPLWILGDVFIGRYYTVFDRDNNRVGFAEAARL
IC50 [1] [µM],IC50 [2] [nM],SMILES
650,35,"C[C@]1(c2cc(Nc3ncnc4cc(C#N)cnc34)ccc2F)N=C(N)[C@@]2(CF)CC[C@@H]1S2(=O)=O [Example 40, 4-((3-((1S,2R,5R)-4-amino-5-(fluoromethyl)-2-methyl-8,8-dioxido-8-thia-3-azabicyclo[3.2.1]oct-3-en-2-yl)-4-fluorophenyl)amino)pyrido[3,2-d]pyrimidine-7-carbonitrile]"
867,15,"COc1cnc2c(Nc3ccc(F)c([C@@]4(C)N=C(N)[C@@]5(CF)CC[C@@H]4S5(=O)=O)c3)nccc2n1 [Example 41, N-(3-((1S,2R,5R)-4-amino-5-(fluoromethyl)-2-methyl-8,8-dioxido-8-thia-3-azabicyclo[3.2.1]oct-3-en-2-yl)-4-fluorophenyl)-2-methoxypyrido[3,4-b]pyrazin-5-amine]"
757,30,"COc1cnc(C(=O)Nc2ccc(F)c([C@@]3(C)N=C(N)[C@@]4(CF)CC[C@@H]3S4(=O)=O)c2)c(C)c1 [Example 42, N-(3-((1S,2R,5R)-4-amino-5-(fluoromethyl)-2-methyl-8,8-dioxido-8-thia-3-azabicyclo[3.2.1]oct-3-en-2-yl)-4-fluorophenyl)-5-methoxy-3-methyl-2-pyridinecarboxamide]"
811,4,"C#CCOc1ccc(C(=O)Nc2ccc(F)c([C@@]3(C)N=C(N)[C@@]4(CF)CC[C@@H]3S4(=O)=O)c2)nc1 [Example 52, N-(3-((1S,2R,5R)-4-amino-5-(fluoromethyl)-2-methyl-8,8-dioxido-8-thia-3-azabicyclo[3.2.1]oct-3-en-2-yl)-4-fluorophenyl)-5-(2-propyn-1-yloxy)-2-pyridinecarboxamide]"
> 400,16.7,"COc1cnc2c(Nc3ccc(F)c([C@@]4(C)N=C(N)[C@@]5(CF)CC[C@@H]4S5(=O)=O)c3)nccc2c1 [Example 56, N-(3-((1S,2R,5R)-4-amino-5-(fluoromethyl)-2-methyl-8,8-dioxido-8-thia-3-azabicyclo[3.2.1]oct-3-en-2-yl)-4-fluorophenyl)-3-methoxy-1,7-naphthyridin-8-amine]"
837,1,"C#CCOc1cnc(C(=O)Nc2ccc(F)c([C@@]3(C)N=C(N)[C@@]4(CF)CC[C@@H]3S4(=O)=O)c2)c(C)n1 [Example 59, N-(3-((1S,2R,5R)-4-amino-5-(fluoromethyl)-2-methyl-8,8-dioxido-8-thia-3-azabicyclo[3.2.1]oct-3-en-2-yl)-4-fluorophenyl)-3-methyl-5-(2-propyn-1-yloxy)-2-pyrazinecarboxamide]"
2500,2,"COc1cnc(C(=O)Nc2ccc(F)c([C@@]3(C)N=C(N)[C@@]4(C)CC[C@@H]3S4(=O)=O)c2)cn1 [Example 61, N-(3-((1S,2R,5R)-4-amino-2,5-dimethyl-8,8-dioxido-8-thia-3-azabicyclo[3.2.1]oct-3-en-2-yl)-4-fluorophenyl)-5-methoxy-2-pyrazinecarboxamide]"
1060,8,"COc1cnc(C(=O)Nc2ccc(F)c([C@@]3(C)N=C(N)[C@@]4(CF)CC[C@@H]3S4(=O)=O)c2)c(C)n1 [Example 76, N-(3-((1S,2R,5R)-4-amino-5-(fluoromethyl)-2-methyl-8,8-dioxido-8-thia-3-azabicyclo[3.2.1]oct-3-en-2-yl)-4-fluorophenyl)-5-methoxy-3-methyl-2-pyrazinecarboxamide]"
570,3,"C[C@]1(c2cc(NC(=O)c3ccc(Cl)cn3)ccc2F)N=C(N)[C@@]2(CF)CC[C@@H]1S2(=O)=O [Example 77, N-(3-((1S,2R,5R)-4-amino-5-(fluoromethyl)-2-methyl-8,8-dioxido-8-thia-3-azabicyclo[3.2.1]oct-3-en-2-yl)-4-fluorophenyl)-5-chloro-2-pyridinecarboxamide]"
3240,12,"COc1cnc2c(Nc3ccc(F)c([C@@]4(C)N=C(N)[C@@]5(C)CC[C@@H]4S5(=O)=O)c3)ncc(F)c2c1 [Example 78, N-(3-((1S,2R,5R)-4-amino-2,5-dimethyl-8,8-dioxido-8-thia-3-azabicyclo[3.2.1]oct-3-en-2-yl)-4-fluorophenyl)-5-fluoro-3-methoxy-1,7-naphthyridin-8-amine]"
> 400,6,"COc1cnc2c(Nc3ccc(F)c([C@@]4(C)N=C(N)[C@@]5(C)CC[C@@H]4S5(=O)=O)c3)nccc2n1 [Example 80, N-(3-((1S,2R,5R)-4-amino-2,5-dimethyl-8,8-dioxido-8-thia-3-azabicyclo[3.2.1]oct-3-en-2-yl)-4-fluorophenyl)-2-methoxypyrido[3,4-b]pyrazin-5-amine]"
717,0.07,"CC#CCOc1cnc(C(=O)Nc2ccc(F)c([C@@]3(C)N=C(N)[C@@]4(C)CC[C@@H]3S4(=O)=O)c2)cn1 [Example 82, N-(3-((1S,2R,5R)-4-amino-2,5-dimethyl-8,8-dioxido-8-thia-3-azabicyclo[3.2.1]oct-3-en-2-yl)-4-fluorophenyl)-5-(2-butyn-1-yloxy)-2-pyrazinecarboxamide]"
685,5,"Cc1cc(Cl)cnc1C(=O)Nc1ccc(F)c([C@@]2(C)N=C(N)[C@@]3(CF)CC[C@@H]2S3(=O)=O)c1 [Example 88, N-(3-((1S,2R,5R)-4-amino-5-(fluoromethyl)-2-methyl-8,8-dioxido-8-thia-3-azabicyclo[3.2.1]oct-3-en-2-yl)-4-fluorophenyl)-5-chloro-3-methyl-2-pyridinecarboxamide]"
733,2,"Cc1cc(C#N)cnc1C(=O)Nc1ccc(F)c([C@@]2(C)N=C(N)[C@@]3(CF)CC[C@@H]2S3(=O)=O)c1 [Example 96, N-(3-((1S,2R,5R)-4-amino-5-(fluoromethyl)-2-methyl-8,8-dioxido-8-thia-3-azabicyclo[3.2.1]oct-3-en-2-yl)-4-fluorophenyl)-5-cyano-3-methyl-2-pyridinecarboxamide]"
359,7,"COc1cnc2c(Nc3ccc(F)c([C@@]4(C)N=C(N)[C@@]5(CF)CC[C@@H]4S5(=O)=O)c3)ncnc2c1 [Example 97, N-(3-((1S,2R,5R)-4-amino-5-(fluoromethyl)-2-methyl-8,8-dioxido-8-thia-3-azabicyclo[3.2.1]oct-3-en-2-yl)-4-fluorophenyl)-7-methoxypyrido[3,2-d]pyrimidin-4-amine]"
337,4,"C[C@]1(c2cc(Nc3nccc4cc(C#N)cnc34)ccc2F)N=C(N)[C@@]2(CF)CC[C@@H]1S2(=O)=O [Example 100, 8-((3-((1S,2R,5R)-4-amino-5-(fluoromethyl)-2-methyl-8,8-dioxido-8-thia-3-azabicyclo[3.2.1]oct-3-en-2-yl)-4-fluorophenyl)amino)-1,7-naphthyridine-3-carbonitrile]"
451,2,"Cc1cc(OC(F)F)cnc1C(=O)Nc1ccc(F)c([C@@]2(C)N=C(N)[C@@]3(CF)CC[C@@H]2S3(=O)=O)c1 [Example 102, N-(3-((1S,2R,5R)-4-amino-5-(fluoromethyl)-2-methyl-8,8-dioxido-8-thia-3-azabicyclo[3.2.1]oct-3-en-2-yl)-4-fluorophenyl)-5-(difluoromethoxy)-3-methyl-2-pyridinecarboxamide]"
799,0.9,"C[C@]1(c2cc(Nc3nccc4nc(OCc5ncco5)cnc34)ccc2F)N=C(N)[C@@]2(CF)CC[C@@H]1S2(=O)=O [Example 104, N-(3-((1S,2R,5R)-4-amino-5-(fluoromethyl)-2-methyl-8,8-dioxido-8-thia-3-azabicyclo[3.2.1]oct-3-en-2-yl)-4-fluorophenyl)-2-(1,3-oxazol-2-ylmethoxy)pyrido[3,4-b]pyrazin-5-amine]"
317,6,"C[C@]1(c2cc(Nc3ncnc4cc(C(F)(F)F)cnc34)ccc2F)N=C(N)[C@@]2(C)CC[C@@H]1S2(=O)=O [Example 106, N-(3-((1S,2R,5R)-4-amino-2,5-dimethyl-8,8-dioxido-8-thia-3-azabicyclo[3.2.1]oct-3-en-2-yl)-4-fluorophenyl)-7-(trifluoromethyl)pyrido[3,2-d]pyrimidin-4-amine]"
965,3,"COc1cnc2c(Nc3ccc(F)c([C@@]4(C)N=C(N)[C@@]5(C)CC[C@@H]4S5(=O)=O)c3)ncnc2c1 [Example 132, N-(3-((1S,2R,5R)-4-amino-2,5-dimethyl-8,8-dioxido-8-thia-3-azabicyclo[3.2.1]oct-3-en-2-yl)-4-fluorophenyl)-7-methoxypyrido[3,2-d]pyrimidin-4-amine]"
855,0.4,"C[C@]1(c2cc(Nc3nccc4nc(OCc5ncco5)cnc34)ccc2F)N=C(N)[C@@]2(C)CC[C@@H]1S2(=O)=O [Example 140, N-(3-((1S,2R,5R)-4-amino-2,5-dimethyl-8,8-dioxido-8-thia-3-azabicyclo[3.2.1]oct-3-en-2-yl)-4-fluorophenyl)-2-(1,3-oxazol-2-ylmethoxy)pyrido[3,4-b]pyrazin-5-amine]"
